We go through 8 compounds from patent publication US20050009840A1 (SUGEN, INC., priority 2003, published 2005).

One may read the IC50 as the concentration that inhibits the measured activity by half.

Like-named read-outs stand apart in the source and are kept apart here. Bounds are passed on as bounds.

The experiment concerns the target T1, Met kinase domain (GST fusion protein) (Homo sapiens, UniProt P08581).
T1 construct: Purified GST fusion protein containing the Met kinase domain
The experiment can be described thus: Met transphosphorylation assay (ELISA, poly(glu-tyr) substrate).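 Also: Cell-free ELISA with plate-bound poly(Glu:Tyr 4:1) phosphorylated by GST-fused Met kinase domain plus ATP and Mn2+, phosphotyrosine detected by anti-phosphotyrosine antibody with HRP and ABTS read-out.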 The class given is biochemical. The note with it: read-out: Met IC50.

[1] abbreviates: plain numbers in column Met IC50 (μM) of Table 2.

T1 sequence (P08581 1078-1345 limits assumed): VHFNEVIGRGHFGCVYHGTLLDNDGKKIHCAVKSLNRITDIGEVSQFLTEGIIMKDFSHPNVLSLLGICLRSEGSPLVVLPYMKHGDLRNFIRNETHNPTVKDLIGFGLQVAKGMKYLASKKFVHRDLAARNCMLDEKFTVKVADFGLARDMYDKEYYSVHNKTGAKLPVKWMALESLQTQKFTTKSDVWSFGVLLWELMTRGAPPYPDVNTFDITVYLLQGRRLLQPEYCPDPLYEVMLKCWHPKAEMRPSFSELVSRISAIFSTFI

Turning to `CC(Oc1nc(-c2ccc(C(=O)N3CCN(C)CC3)cc2)cnc1N)c1c(Cl)ccc(F)c1Cl` (centres unmarked) [II-154, (4-{5-Amino-6-[1-(2,6-dichloro-3-fluoro-phenyl)-ethoxy]-pyrazin-2-yl}-phenyl)-(4-methyl-piperazin-1-yl)-methanone], the IC50 came to 0.16 µM.
With `CC(Oc1cc(-c2ccncc2)cnc1N)c1c(F)ccc(F)c1Cl` (centres unmarked) [Example I-528, 5-[1-(2-Chloro-3,6-difluoro-phenyl)-ethoxy]-[3,4′]bipyridinyl-6-ylamine], under setting [1], the half-maximal inhibitory concentration (IC50) amounted to 0.0659 µM.
`CC(Oc1nc(-c2cccc(C(=O)NCCN3CCOCC3)c2)cnc1N)c1c(Cl)cccc1Cl` (centres unmarked) [II-172, 3-{5-Amino-6-[1-(2,6-dichloro-phenyl)-ethoxy]-pyrazin-2-yl}-N-(2-morpholin-4-yl-ethyl)-benzamide]: the IC50 is 0.48 µM.
`CC(Oc1cc(-c2ccc(OCCN3CCOCC3)cc2)cnc1N)c1c(Cl)ccc(F)c1Cl` (centres unmarked) [Example I-357, 3-[1-(2,6-Dichloro-3-fluoro-phenyl)-ethoxy]-5-[4-(2-morpholin-4-yl-ethoxy)-phenyl]-pyridin-2-ylamine]: under “Table 2”, the IC50 was determined as 0.13 µM.
On to `Nc1ncc(-c2cccc(C(=O)N3CCC[C@@H]3CN3CCCC3)c2)cc1OCc1c(Cl)cccc1Cl` [Example I-54, {3-(6-Amino-5-(2,6-dichloro-benzyloxy)-pyridin-3-yl]-phenyl}-[(2R)-2-pyrrolidin-1-ylmethyl-pyrrolidin-1-yl]-methanone], for which the IC50 worked out at 2.5 µM.
As for `CC(Oc1cc(-c2cccc(C(=O)NC3CCN(C)CC3)c2)cnc1N)c1c(F)ccc(F)c1Cl` (centres unmarked) [Example I-345, 3-{6-Amino-5-[1-(2-chloro-3,6-difluoro-phenyl)-ethoxy]-pyridin-3-yl}-N-(1-methyl-piperidin-4-yl)-benzamide], the IC50 (Table 2) is 0.2 µM.
As to `Nc1ncc(-c2ccccc2)cc1OCc1cc(C(F)(F)F)ccc1Cl` [Example I-92, 3-(2-Chloro-5-trifluoromethyl-benzyloxy)-5-phenyl-pyridin-2-ylamine], the IC50 was over 20 µM.
On to `CC(Oc1cc(-c2ccc(NC(=O)NCCO)cc2)cnc1N)c1c(F)ccc(F)c1Cl` (centres unmarked) [Example I-381, 1-(4-{6-Amino-5-[1-(2-chloro-3,6-difluoro-phenyl)-ethoxy]-pyridin-3-yl}-phenyl)-3-(2-hydroxy-ethyl)-urea], for which the IC50 under setting [1] is 0.11 µM.
